In one assay the target is DGKalpha (Homo sapiens, UniProt P23743). Put plainly: In vitro DGK inhibition assay (ADP-Glo, liposomes), DGKalpha. The class given is biochemical. Details: hDGKalpha(1-735)-N-His; His (N); made in house; host or cells: Sf21 insect cells (baculovirus). Particulars: 4 nM DGK α, 25 μM ATP, 125 uM DLG in liposomes, 1 hour reaction. The gist of the method:
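Full-length human DGKα (4 nM) or DGKζ (2 nM) from Sf21 cells, with DLG substrate at 125 uM in PS/PC liposomes and ATP at 25 μM (α) or 50 μM (ζ); 1 h reaction. ADP formed read by ADP-Glo luminescence; compounds 11-point, 1:3 dilutions from 10 mM, 2% DMSO final.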

For the next assay, the system named is primary human T-cells. Put plainly: IL2 secretion measurements in CD3-stimulated T-cells. It counts as cell-based. The settings on record: Homo sapiens, T-cell, 24 h, CD3 condition; for Emax: IL2 after 24 hours, 20 μM reference compound A1 = 100%, read-out: Emax IL2 (% activation); for EC50: IL2 secretion after 24 hours, read-out: Tcell IL2 CD3 EC50. The gist of the method: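 Expanded primary human T-cells (100k/well) were stimulated on CD3 antibody-coated or PBS-coated plates with compounds in 5–6 point dose response from 20 or 10 μM top final (dilution factor 3.333, 0.2% DMSO final). IL2 in 24 h supernatants was measured by ProQuantum immunoassay or ELISA, normalized to DMSO (0%) and 20 μM reference compound A1 (100%) to fit EC50 and Emax.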

Chain of DGKalpha (P23743 whole entry): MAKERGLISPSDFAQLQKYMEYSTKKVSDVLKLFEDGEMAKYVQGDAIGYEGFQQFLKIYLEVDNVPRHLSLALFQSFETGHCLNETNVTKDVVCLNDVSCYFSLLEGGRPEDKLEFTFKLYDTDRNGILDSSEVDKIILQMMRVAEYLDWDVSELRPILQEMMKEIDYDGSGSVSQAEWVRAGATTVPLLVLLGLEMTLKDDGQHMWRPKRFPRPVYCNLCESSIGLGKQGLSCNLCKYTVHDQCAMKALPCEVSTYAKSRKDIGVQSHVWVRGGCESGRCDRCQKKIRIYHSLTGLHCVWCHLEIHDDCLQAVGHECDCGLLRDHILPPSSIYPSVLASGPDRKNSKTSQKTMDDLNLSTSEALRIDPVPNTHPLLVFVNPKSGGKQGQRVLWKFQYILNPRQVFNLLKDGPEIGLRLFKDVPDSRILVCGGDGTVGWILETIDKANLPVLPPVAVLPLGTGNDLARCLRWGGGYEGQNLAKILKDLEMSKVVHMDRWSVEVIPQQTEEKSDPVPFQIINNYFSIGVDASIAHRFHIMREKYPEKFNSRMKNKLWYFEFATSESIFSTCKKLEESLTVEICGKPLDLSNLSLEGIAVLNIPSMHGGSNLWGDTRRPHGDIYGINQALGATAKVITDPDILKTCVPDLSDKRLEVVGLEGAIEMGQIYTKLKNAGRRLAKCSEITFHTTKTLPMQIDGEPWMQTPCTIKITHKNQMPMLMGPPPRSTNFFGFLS

For the molecule `COc1ccc(-c2ccc(CN3C(=O)[C@@H](N)CS(=O)(=O)c4ccc(-c5nnc(C(C)(C)S(C)(=O)=O)o5)cc43)cc2)cc1` [Example 21, (3R)-3-amino-5-[[4-(4-methoxyphenyl)phenyl]methyl]-7-[5-(1-methyl-1-methylsulfonyl-ethyl)-1,3,4-oxadiazol-2-yl]-1,1-dioxo-2,3-dihydro-1λ6,5-benzothiazepin-4-one], it took 1270 nM to reach half-maximal inhibition against DGKalpha (IC50). For the same molecule, in the assay on primary human T-cells, the maximal response (Emax) was found to be 89% and the concentration for a half-maximal effect (EC50) amounted to 1240 nM.
`CC(C)(c1nnc(-c2cc3c(cc2F)S(=O)(=O)C[C@H](N)C(=O)N3Cc2ccc(-c3ccc(C(F)(F)F)cc3)cc2)o1)S(C)(=O)=O` [Example 35, (3R)-3-amino-8-fluoro-7-[5-(1-methyl-1-methylsulfonyl-ethyl)-1,3,4-oxadiazol-2-yl]-1,1-dioxo-5-[[4-[4-(trifluoromethyl)phenyl]phenyl]methyl]-2,3-dihydro-1λ6,5-benzothiazepin-4-one] had a concentration for half-maximal inhibition (IC50) on DGKalpha of 1220 nM. In the assay with primary human T-cells, the Emax came out at 239% and the EC50 turned out to be 43 nM.
Taken in the same sequence, the figures for `CC(C)(c1nnc(-c2ccc3c(c2)N(Cc2ccc(SC(F)(F)F)cc2)C(=O)[C@@H](N)CS3(=O)=O)o1)S(C)(=O)=O` [Example 7] were 2300 nM, 94% and 2800 nM.
In the same order, the values of `CC(C)(c1nc(-c2cc3c(cc2F)S(=O)(=O)C[C@H](N)C(=O)N3Cc2ccc(OC(F)(F)F)cc2)no1)S(C)(=O)=O` [Example 44, (3R)-3-amino-8-fluoro-7-[5-(1-methyl-1-methylsulfonyl-ethyl)-1,2,4-oxadiazol-3-yl]-1,1-dioxo-5-[[4-(trifluoromethoxy)phenyl]methyl]-2,3-dihydro-1λ6,5-benzothiazepin-4-one] are 683 nM, 192% and 325 nM.
In the same order, the values of `CC(C)(c1nnc(-c2ccc3c(c2)N(Cc2ccc(-c4ccc(C(F)(F)F)cc4)cc2)C(=O)[C@@H](N)CS3(=O)=O)o1)S(=O)(=O)N1CCCC1` [Example 67, (3R)-3-amino-7-[5-(1-methyl-1-pyrrolidin-1-ylsulfonyl-ethyl)-1,3,4-oxadiazol-2-yl]-1,1-dioxo-5-[[4-[4-(trifluoromethyl)phenyl]phenyl]methyl]-2,3-dihydro-1λ6,5-benzothiazepin-4-one] are greater than 62500 nM, 71% and 1760 nM.
`CC(C)(c1nnc(-c2cc3c(cc2F)S(=O)(=O)C[C@H](N)C(=O)N3Cc2ccc(-c3ccc(C(F)(F)F)nc3)cc2)o1)S(C)(=O)=O` [Example 36]: it took 1590 nM to reach half-maximal inhibition on DGKalpha (IC50). Moreover, in the assay with primary human T-cells, the Emax stood at 61% and the EC50 worked out at 637 nM.
Taken in the same sequence, the figures for `CC(C)(c1nc(-c2cc3c(cc2F)S(=O)(=O)C[C@H](N)C(=O)N3Cc2ccc(Cl)cc2)no1)S(C)(=O)=O` [Example 43, (3R)-3-amino-5-[(4-chlorophenyl)methyl]-8-fluoro-7-[5-(1-methyl-1-methylsulfonyl-ethyl)-1,2,4-oxadiazol-3-yl]-1,1-dioxo-2,3-dihydro-1λ6,5-benzothiazepin-4-one] were 640 nM, 163% and 131 nM.
Taken in the same sequence, the figures for `COc1ccc(-c2ccc(CN3C(=O)[C@@H](N)CS(=O)(=O)c4ccc(-c5nnc(C(C)(C)S(C)(=O)=O)o5)cc43)cc2)c(C)c1` [Example 49, (3R)-3-amino-5-[[4-(4-methoxy-2-methyl-phenyl)phenyl]methyl]-7-[5-(1-methyl-1-methylsulfonyl-ethyl)-1,3,4-oxadiazol-2-yl]-1,1-dioxo-2,3-dihydro-1λ6,5-benzothiazepin-4-one] were 11100 nM, 34% and greater than 10000 nM.

(Values after US20260035364A1, “BICYCLIC TETRAHYDROTHIAZEPINE DERIVATIVES” (Hoffmann-La Roche Inc., priority 2022, published 2026).)
